In US4346078A, “Novel anticoagulant agmatine derivatives and process for the preparation thereof” (Richter Gedeon Vegyeszeti Gyar Rt., priority 1980, dated 1982):
Where a SMILES comes first, the peptide text is derived from it. [ ]: non-standard residue; d: D form. The star is where a group is joined. dPhg = N[C@@H](C(=O)O)c1ccccc1; Agmatine = N=C(N)NCCCCN*; Bn = c1ccc(C*)cc1

Assays:
Human Thrombin [1] = biological target: T1, Human Thrombin (Homo sapiens, UniProt P00734); assay: Fibrinogen-thrombin reaction: amount required to double the thrombin time of fibrinogen; type: biochemical; details: for Amount of agmatine derivative required to double the thrombin-time of fibrinogen: bovine fibrinogen, human thrombin 5 NIH Unit/ml, pH 7.4, thrombin time without derivative 15 seconds; for relative activity: related to tosyl-agmatine, taken as unity
T1 construct: 0.1 ml US Standard Human Thrombin 5 NIH Unit/ml
Source text: It is known that the simple acyl derivatives of agmatine (1-amino-4-guanidino-butane), as for instance tosyl-agmatine (1-[p-toluene-sulfonylamido]-4-guanidino-butane), have the ability to inhibit the proteolytic reactions of both tripsin and thrombin (Lorand and Rule: Nature, 190, 722, 1961; Rule and Lorand: Biochim. Biophys. Acta, 81, 130, 1964). According to these authors tosyl-agmatine delays the clotting of blood plasma, and also is assumed to suppress the fibrinogen-thrombin reaction. In our own experiments, however, the fibrinogen-thrombin reaction was affected by tosyl-agmatine to a negligible degree: 0.7 mg of tosyl-agmatine is required to double (from 15 sec to 30 sec) the thrombin time of 1 ml of a solution containing 1.25 mg of fibrinogen and 1.25 NIH units of thrombin ("Minimum Requirements of Dried Thrombin", 2nd rev. Div. Biol. Conf. Natl. Inst. Health, Bethesda, Md., United States 1946).
The potency of the substances is defined by the amount of the compound required to double the thrombin time of fibrinogen. Furthermore, the relative potency of the novel agmatine derivatives related to tosyl-agmatine (the activity of the last-mentioned drug is taken as unity) is listed, too.
The potency of the compounds was assayed in the following system:
0.2 ml of 0.5 percent bovine fibrinogen in 0.9 percent NaCl solution,
0.1 ml of tris-(hydroxymethyl)-methylamine hydrochloride buffer solution (pH=7.4) containing the agmatine derivative, and
0.1 ml US Standard Human Thrombin 5 NIH Unit/ml.
The thrombin time of the system devoid of agmatine derivative is 15 seconds.

Human Thrombin [2] = biological target: T1, Human Thrombin; assay: Relative thrombin-time in isolated fibrinogen-thrombin reaction mixture A; type: biochemical; details: system A, without inhibitor = 1
Description: (§1) In in vitro trials the effect of D-Phe-Pro-Agm.2HCl (in formula I, X is a D-phenylalanine moiety, B is chloride ion and n=2) and heparin was studied in an isolated system, in a fibrinogen-thrombin reaction mixture A and in human citrate plasma B:
0.2 ml of 0.5 percent bovine fibrinogen in 0.9 percent saline solution,
0.1 ml US Standard Human Thrombin 10 NIH Unit/ml.

Human Thrombin [3] = biological target: T1, Human Thrombin; assay: Relative thrombin-time in human citrate plasma B; type: biochemical; details: system B human citrate plasma, without inhibitor = 1
Description: as §1
0.2 ml of human citrate plasma
0.1 ml US Standard Human Thrombin 10 NIH U/ml.

gray rabbits = assay: In vivo prothrombin activity of the blood assayed according to Quick; parameters: species or system rabbit
Description: In in vivo trials gray rabbits (2 to 3 kg) were administered subcutaneously:
b. 10 mg/kg D-Phe-Pro-Agm.2HCl, or
c. 5 mg/kg heparin and 10 mg/kg D-Phe-Pro-Agm.2HCl.

[4] = heparin 0.05 μg/ml reaction mixture
[5] = heparin 0.10 μg/ml reaction mixture
[6] = heparin 0.20 μg/ml reaction mixture
[7] = D-Phe-Pro-Agm.2HCl 0.10 μg/ml reaction mixture

## ClOCl.N=C(N)NCCCCNC(=O)[C@@H]1CCCN1C(=O)[C@H](N)c1ccccc1 [H--D--Phg--Pro--Agm, D-Phenylglycyl-L-prolyl-agmatine-dichlorohydrate] (H-[dPhg]-Pro-Agmatine)
Human Thrombin [1]
  Amount of agmatine derivative required to double the thrombin-time of fibrinogen: 1.4 μ/reaction mixture
  relative activity: 200

## Heparin
Human Thrombin [2]; [4]
  Relative thrombin-time, alone: 1.1
Human Thrombin [2]; [5]
  Relative thrombin-time, alone: 1.5
Human Thrombin [2]; [6]
  Relative thrombin-time, alone: 2.0
Human Thrombin [3]; [4]
  Relative thrombin-time, alone: 1.0
Human Thrombin [3]; [5]
  Relative thrombin-time, alone: 2.0
Human Thrombin [3]; [6]
  Relative thrombin-time, alone: 3.8
Gray rabbits; 5 mg/kg heparin subcutaneously
  prothrombin activity of the blood: practically unaltered

## ClOCl.N=C(N)NCCCCNC(=O)[C@@H]1CCCN1C(=O)[C@H](N)Cc1ccccc1 [H--D--Phe--Pro--Agm, D-Phenylalanyl-L-prolyl-agmatine-dichlorohydrate] (H-[dF]-Pro-Agmatine)
Human Thrombin [1]
  anticoagulant potency (in words): extremely high activity
  Amount of agmatine derivative required to double the thrombin-time of fibrinogen: 0.12 μ/reaction mixture
  relative activity: 2333
Human Thrombin [2]; [7]
  Relative thrombin-time, alone: 2.5
Human Thrombin [2]; D-Phe-Pro-Agm.2HCl 0.20 μg/ml reaction mixture
  Relative thrombin-time, alone: 4.0
Human Thrombin [3]; D-Phe-Pro-Agm.2HCl 0.05 μg/ml reaction mixture
  Relative thrombin-time, alone: 2.2
Human Thrombin [3]; [7]
  Relative thrombin-time, alone: 3.4
Gray rabbits; 10 mg/kg D-Phe-Pro-Agm.2HCl subcutaneously
  prothrombin activity of the blood: practically unaltered

## ClOCl.N=C(N)NCCCCNC(=O)[C@@H]1CCCN1C(=O)[C@H](N)COCc1ccccc1 [H--D--Ser(Bzl)--Pro--Agm, O-Benzyl-D-seryl-L-prolyl-agmatine-dichlorohydrate] (H-[dS](Bn)-Pro-Agmatine)
Human Thrombin [1]
  Amount of agmatine derivative required to double the thrombin-time of fibrinogen: 0.7 μ/reaction mixture
  relative activity: 400

## Cc1ccc(S(=O)(=O)NCCCCNC(=N)N)cc1 [Tosyl--agmatine, 1-[p-toluene-sulfonylamido]-4-guanidino-butane, reference compound]
Human Thrombin [1]; 1 ml of a solution containing 1.25 mg of fibrinogen and 1.25 NIH units of thrombin
  amount required to double (from 15 sec to 30 sec) the thrombin time: 0.7 mg
Human Thrombin [1]
  Amount of agmatine derivative required to double the thrombin-time of fibrinogen: 280 μ/reaction mixture
  relative activity: 1
